Experimental data: paper PMC7588843 (Bioactive Materials, 2020)
Converted amounts (≈) assume the structure as drawn.

Experiments:
[1] = tested on: P. falciparum D10 (CQ-sensitive) strain; test: P. falciparum drug susceptibility assay; assay type: cell-based; conditions: for IC50: Plasmodium falciparum, D10, 72 h, read-out: P. falciparum IC50 D10; for SID10: IC50(NHDF)/IC50(D10)
human erythrocytes [2] = test: Hemolytic activity in the presence of 10 μM FP; assay type: cell-based; conditions: for Hemolysis of human erythrocytes in the presence of FP: 50 and 100 μM, 2 h, 37 °C
[3] = tested on: P. falciparum W2 (CQ-resistant) strain; test: P. falciparum drug susceptibility assay; assay type: cell-based; conditions: for SIW2: IC50(NHDF)/IC50(W2); for IC50: Plasmodium falciparum, W2, 72 h, read-out: P. falciparum IC50 W2; for RI (resistance index): ratio of IC50 against W2 and D10 strains
human erythrocytes [4] = test: Hemolytic activity without FP; assay type: cell-based; conditions: 50 and 100 μM, 2 h, 37 °C
Cytotoxic activity test = assay type: cell-based, human; conditions: human, NHDF cells
[5] = In vivo pharmacokinetic evaluation in mice
NHDF cells = test: Cytotoxic activity test; assay type: cell-based, human; conditions: 24 and 48 h, MTT, up to twice the IC50 for P. falciparum
[6] = male, CD-1, mouse, plasma, po, 0.02 mg/kg

Row | Compound | IC50 [1] [µg/mL] | Hemolysis of human erythrocytes in the presence of FP (human erythrocytes [2]) | SIW2 [3] | IC50 [3] [µg/mL] | Hemolysis of human erythrocytes without FP (human erythrocytes [4]) | SID10 [1] | RI (resistance index) [3] | IC50 (Cytotoxic activity test) [µg/mL] | other results
1 | CCN(CC)CCCC(C)Nc1ccnc2cc(Cl)ccc12 (stereo not shown) [CQ, chloroquine diphosphate, reference compound] | 0.0184 ± 0.008 | drastically increased the percentage of hemolysis | 80.5 | 0.262 ± 0.102 |  |  |  |  | 
2 | c1ccc2c(c1)[nH]c1ncccc12 [Compound 1, 9H-1-azacarbazole] | > 5 |  |  | > 5 |  |  |  |  | 
3 | c1ccc2c(c1)[nH]c1cnccc12 [Compound 2, 9H-2-azacarbazole] | 3.33 ± 0.742 (≈ 19.8 µM) | drastically increased the percentage of hemolysis | 10.9 | 3.67 ± 0.708 (≈ 21.8 µM) | None of the examined agents caused significant lysis | 12.0 | 1.1 | 40 ± 1.11 (≈ 238 µM) | 
4 | c1ccc2c(c1)[nH]c1ccncc12 [Compound 3, 9H-3-azacarbazole] | 1.95 ± 0.263 (≈ 11.6 µM) | drastically increased the percentage of hemolysis | 14.4 | 2.22 ± 0.752 (≈ 13.2 µM) | None of the examined agents caused significant lysis | 16.4 | 1.1 | 32 ± 1.43 (≈ 191 µM) | AUC(0-t) [5, 6]: 1 ng·h/mL; CL/F [5, 6]: 194 mL/min/kg; Cmax [5, 6]: 4.67 ng/mL; MRT [5, 6]: 1.28 h; Vd/F [5, 6]: 19.7 L/kg; k el [5, 6]: 0.000165 s⁻¹; Tmax ([5]; male, CD-1, mouse, plasma, po, 0.02 mg/kg, tmax, mice, i.g., 0.02 mg/kg in 3-NE): ≤ 5 min; time plasma concentrations detectable after administration ([5]; mice, i.g., 0.02 mg/kg in 3-NE): at least 8 h; t0.5 ([5]; mice, i.g., 0.02 mg/kg in 3-NE, plasma, 0.02 mg/kg): 70.33 min; NHDF cell viability (NHDF cells): negligible effect on cell viability
5 | Cc1cccc2c1[nH]c1ncccc12 [Compound 4, 8-methyl-9H-1-azacarbazole] | > 5 |  |  | > 5 |  |  |  |  | 
6 | Cc1ccc2[nH]c3ncccc3c2c1 [Compound 5, 6-methyl-9H-1-azacarbazole] | > 5 |  |  | > 5 |  |  |  |  | 
7 | Cc1ccn(C)c2nc3ccccc3c1-2 [Compound 6, 1,4-dimethyl-1H-1-azacarbazole] | 4.42 ± 0.458 (≈ 22.5 µM) | drastically increased the percentage of hemolysis | 2.8 | 4.18 ± 1.04 (≈ 21.3 µM) | None of the examined agents caused significant lysis | 2.6 | 0.9 | 11.8 ± 0.144 (≈ 59.9 µM) | Hemolysis with FP compared with CQ-FP, 50 μM (human erythrocytes [2]): less hemolytic than CQ-FP complexes
8 | c1cnc2[nH]c3ncccc3c2c1 [Compound 7, 9H-1,8-diazacarbazole] | > 5 |  |  | > 5 |  |  |  |  | 
9 | c1cc2c(cn1)[nH]c1cnccc12 [Compound 8, 9H-2,7-diazacarbazole] | > 5 |  |  | > 5 |  |  |  |  | 
10 | c1cnc2c(c1)[nH]c1ncccc12 [Compound 9, 9H-1,5-diazacarbazole] | > 5 |  |  | > 5 |  |  |  |  | 
11 | c1cnc2c(c1)[nH]c1cccnc12 [Compound 10, 9H-4,5-diazacarbazole] | > 5 |  |  | > 5 |  |  |  |  | 
12 | Cn1cccc2c3cccnc3nc1-2 [Compound 11, 1-methyl-1H-1,8-diazacarbazole] | > 5 |  |  | > 5 |  |  |  |  | 
13 | Cn1cccc2nc3cccnc3c1-2 [Compound 12, 4-methyl-4H-4,5-diazacarbazole] | 3.16 ± 0.621 (≈ 17.3 µM) |  | 10.7 | 3.99 ± 0.269 (≈ 21.8 µM) | None of the examined agents caused significant lysis | 13.5 | 1.3 | 42.8 ± 3.31 (≈ 234 µM) | Hemolysis with FP compared with CQ-FP, 50 μM (human erythrocytes [2]): less hemolytic than CQ-FP complexes; Hemolysis with FP compared with CQ-FP, 100 μM (human erythrocytes [2]; 100 μM): less hemolytic than CQ-FP complexes
